ChEMBL document CHEMBL1201862, “PubChem BioAssay data set” (2004)
The source made the active and inactive calls.

How the values were obtained:
[1] = biological target: Transitional endoplasmic reticulum ATPase (Homo sapiens, UniProt P55072, C522A); assay: C522A mutant p97 ATPase inhibitors, dose response, counter-screen for p97 inhibitor project, biochemical, luminescence (AID 1544)
[2] = biological target: Transitional endoplasmic reticulum ATPase (Homo sapiens, UniProt P55072); assay: p97 ATPase inhibitors, dose response, biochemical (AID 1534)
[3] = biological target: T1, Luciferin 4-monooxygenase (Photinus pyralis, UniProt P08659); assay: Counter Screen for Luciferase-based Assay Positives. [Related pubchem assays: 620, 618, 411 ]
HT-1080 = assay: HT1080 cell viability loss – fluorescence readout (AID 620); assay type: functional, cell-based; conditions: Homo sapiens
[4] = biological target: Mothers against decapentaplegic homolog 3 (Homo sapiens, UniProt P84022); assay: blockers of Smad3 complex formation in lysate – cell lysate, secondary confirmation, chemiluminescent ELISA, HEK293 lysate, dose response (AID 1058); assay type: functional
[5] = biological target: T2, Neuropeptide Y receptor type 1 (Homo sapiens, UniProt P25929); assay: Fluorescence-based counterscreen for agonists of NPY-Y2: cell-based high-throughput dose response assay for agonists of NPY-Y1.; assay type: functional
T2 sequence (P25929 whole entry): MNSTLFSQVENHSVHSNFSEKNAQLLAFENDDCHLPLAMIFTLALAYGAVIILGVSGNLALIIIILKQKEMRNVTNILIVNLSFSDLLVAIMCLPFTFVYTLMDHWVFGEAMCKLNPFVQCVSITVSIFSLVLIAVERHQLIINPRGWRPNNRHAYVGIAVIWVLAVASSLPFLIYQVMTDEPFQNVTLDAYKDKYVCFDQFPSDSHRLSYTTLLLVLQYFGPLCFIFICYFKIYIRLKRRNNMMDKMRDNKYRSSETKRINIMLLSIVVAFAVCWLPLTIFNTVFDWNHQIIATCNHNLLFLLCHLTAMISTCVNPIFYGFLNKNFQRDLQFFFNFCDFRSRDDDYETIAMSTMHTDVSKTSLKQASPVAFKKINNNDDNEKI

[6] = biological target: Lysosomal acid glucosylceramidase (Homo sapiens, UniProt P04062); assay: Dose response cell-based high throughput screening assay to identify enhancers of beta-glucosidase activity. [Related pubchem assays: 784 ]; assay type: functional
HEK293 [7] = assay: Fluorescence-based counterscreen for potentiators or agonists of NPY-Y2: cell-based high-throughput dose response assay to identify inhibitors of cyclic nucleotide gated ion channel (CNGC) activity. In this assay, the parental HEK293 cell line transfected with a cyclic-nucleotide gated ion channel (CNGC)-based cAMP sensor is used to measure inhibition of isoproterenol-induced CNGC activity by test compound.; assay type: functional; conditions: Homo sapiens
[8] = biological target: T3, Neuropeptide Y receptor type 2 (Homo sapiens, UniProt P49146); assay: Fluorescence-based cell-based high-throughput dose response assay for agonists of NPY-Y2. [Related pubchem assays: 1703 (Screening assay (CNGC inhibitors).), 1359 (Screening assay (NPY-Y2 potentiators or agonists).), 1304 (Screening assay (NPY-Y1 potentiators or agonists).), 1710 (Screening assay (NPY-Y2 agonists).), 1791 (Summary AID.)]; assay type: functional
T3 sequence (P49146 whole entry): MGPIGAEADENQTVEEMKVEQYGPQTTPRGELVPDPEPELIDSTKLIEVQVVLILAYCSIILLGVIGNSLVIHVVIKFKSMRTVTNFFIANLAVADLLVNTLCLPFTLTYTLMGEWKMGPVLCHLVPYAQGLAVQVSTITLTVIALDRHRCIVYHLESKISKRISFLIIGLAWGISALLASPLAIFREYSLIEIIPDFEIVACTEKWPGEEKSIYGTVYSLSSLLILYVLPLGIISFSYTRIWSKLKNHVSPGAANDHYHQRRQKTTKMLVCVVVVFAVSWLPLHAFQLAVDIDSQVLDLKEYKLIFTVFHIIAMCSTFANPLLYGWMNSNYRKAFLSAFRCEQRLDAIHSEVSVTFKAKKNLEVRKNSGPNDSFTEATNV

Ion channel NompC = Ion channel NompC (Danio rerio, UniProt Q7T1G6); assay: Fluorescence counterscreen assay for TRPML3 agonists: dose response cell-based high-throughput screening assay to identify agonists of the transient receptor potential channel N1 (TRPN1). [Related pubchem assays: 1526, 1424, 1448 ]; assay type: functional
Mucolipin-3 = Mucolipin-3 (Homo sapiens, UniProt Q8TDD5); assay: Dose response cell-based high-throughput screening assay for agonists of the transient receptor potential channel ML3 (TRPML3). [Related pubchem assays: 1526, 1424, 1448 ]; assay type: functional
Procathepsin L = Procathepsin L (Homo sapiens, UniProt P07711)
[9] = biological target: T4, RNA-binding protein pos-1 (Caenorhabditis elegans, UniProt G5EF15); assay: disruptors of C. elegans POS-1 RNA interaction – biochemical, fluorescence polarization, dose response (AID 1964);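 further: purified POS-1 fused to maltose binding protein made in E. coli; potency of compounds blocking POS-1 binding to fluorescent RNA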
T4 sequence (G5EF15 whole entry): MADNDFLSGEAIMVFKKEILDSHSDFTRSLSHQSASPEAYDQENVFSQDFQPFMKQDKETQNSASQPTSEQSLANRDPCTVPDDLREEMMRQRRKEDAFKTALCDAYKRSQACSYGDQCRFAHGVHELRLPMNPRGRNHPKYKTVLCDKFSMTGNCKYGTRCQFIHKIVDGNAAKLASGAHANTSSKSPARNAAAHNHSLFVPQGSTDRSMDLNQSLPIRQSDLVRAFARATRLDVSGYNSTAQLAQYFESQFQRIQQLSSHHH

[10] = HPDE-C7 pancreatic duct cell viability loss – fluorescence, HTS (AID 430); assay type: functional, cell-based; conditions: Homo sapiens
[11] = biological target: T5, Zinc finger protein mex-5 (Caenorhabditis elegans, UniProt Q9XUB2); assay: potency of MEX-5 RNA-binding blockers – biochemical, C. elegans, fluorescence polarization, dose response (AID 1960)
T5 sequence (Q9XUB2 whole entry): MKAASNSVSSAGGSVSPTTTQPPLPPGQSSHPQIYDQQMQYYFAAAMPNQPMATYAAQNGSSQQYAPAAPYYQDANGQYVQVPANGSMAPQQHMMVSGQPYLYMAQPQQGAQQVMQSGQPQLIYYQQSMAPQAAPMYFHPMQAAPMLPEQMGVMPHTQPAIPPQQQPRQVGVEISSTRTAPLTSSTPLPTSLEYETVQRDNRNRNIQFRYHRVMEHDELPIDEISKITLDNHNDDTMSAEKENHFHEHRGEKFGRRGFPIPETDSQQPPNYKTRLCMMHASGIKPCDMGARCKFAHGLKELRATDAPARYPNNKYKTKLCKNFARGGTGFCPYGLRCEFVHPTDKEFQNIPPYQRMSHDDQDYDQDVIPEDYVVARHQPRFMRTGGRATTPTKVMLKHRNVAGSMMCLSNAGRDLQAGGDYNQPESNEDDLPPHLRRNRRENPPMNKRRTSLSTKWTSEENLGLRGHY

[12] = viability loss of HPDE-C7K cells – cell-based, fluorescence, HTS, primary screen (AID 431); assay type: functional; conditions: Homo sapiens
Large T antigen = Large T antigen (Simian virus 40, UniProt P03070); assay type: functional, Betapolyomavirus macacae;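 further: Confirmatory-stage PubChem screen for compounds that inhibit SV40 T antigen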
[13] = biological target: FAD-linked sulfhydryl oxidase ALR (Homo sapiens, UniProt P55789); assay: ALR-catalysed DTT oxidation blockers – biochemical, H2O2 detection, luminescence, cherry-pick, dose response (AID 493248)
[14] = viability loss in THP-1 monocytes – THP-1 cells, cytotoxicity control for Vif-APOBEC3G degradation inhibitor project, dose response (AID 1117359); assay type: functional; conditions: THP-1
Aspartyl aminopeptidase = biological target: T6, Aspartyl aminopeptidase (Plasmodium falciparum 3D7, UniProt Q8I2J3)
T6 sequence (Q8I2J3 whole entry): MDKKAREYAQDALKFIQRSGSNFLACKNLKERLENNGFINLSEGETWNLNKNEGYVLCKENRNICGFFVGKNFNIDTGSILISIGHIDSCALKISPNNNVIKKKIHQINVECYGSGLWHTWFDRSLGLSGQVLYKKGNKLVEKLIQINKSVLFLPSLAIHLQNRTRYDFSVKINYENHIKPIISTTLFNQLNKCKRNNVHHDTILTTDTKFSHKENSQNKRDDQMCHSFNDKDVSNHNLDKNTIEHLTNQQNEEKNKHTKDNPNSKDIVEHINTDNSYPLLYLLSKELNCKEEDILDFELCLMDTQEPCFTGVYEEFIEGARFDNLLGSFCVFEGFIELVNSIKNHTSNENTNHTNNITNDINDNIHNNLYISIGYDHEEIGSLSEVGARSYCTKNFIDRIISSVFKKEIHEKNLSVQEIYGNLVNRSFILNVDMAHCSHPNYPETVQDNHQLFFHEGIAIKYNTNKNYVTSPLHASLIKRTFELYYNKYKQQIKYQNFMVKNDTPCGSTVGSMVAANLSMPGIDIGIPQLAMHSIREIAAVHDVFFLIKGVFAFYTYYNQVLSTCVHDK

Streptococcus = assay: Luminescence Microorganism-Based Dose Response Follow up to Identify Compounds Cytotoxic to Streptococcus. [Related pubchem assays: 1677 (Project Summary), 1915, 1914, 1902 (Retest at Dose), 1900 (Counter Screen), 1662 (Primary HTS)]; assay type: functional, organism-based
[15] = alpha-synuclein stem-loop translation blockers – luminescence, H4 neuroglioblastoma cells, dose confirmation, confirmation (AID 2454); assay type: functional, cell-based;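 further: H4 neuroglioblastoma cells carrying an alpha-synuclein 5'UTR luciferase reporter; potency for inhibition of the luciferase signal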
[16] = luciferase reporter signal suppression in cells – H4 neuroglioma cells, luminescence, dose response (AID 1990); assay type: functional, cell-based
[17] = alpha-synuclein stem-loop luciferase translation blockers – H4 neuroglioma cells, luminescence, confirmation (AID 1988); assay type: functional, cell-based
cells = assay type: functional, cell-based
[18] = HEK-293T viability loss after treatment – luminescence, T-cell screen hits, cytotoxicity control for TCR NF-kB inhibitor project, dose response (AID 489026); assay type: functional, cell-based;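 further: cells exposed to compound about 14 hours before the viability readout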
[19] = Luminescence-based dose response cell-based high throughput screening assay for cytotoxic compounds using the IEC-6 intestinal epithelial cell line. [Related pubchem assays: 1858 (Summary AID.), 1825 (Counterscreen.), 1907 (Confirmation screen.)]; assay type: functional
[20] = luciferase reporter signal reduction – luminescence, H4-C neuroglioblastoma cells, dose response (AID 2458); assay type: functional, cell-based;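 further: H4 neuroglioblastoma cells stably carrying a luciferase reporter gene fusion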
Staphylococcus aureus = assay: Inhibitors of Bacterial Quorum Sensing Structure Activity Relationship (SAR) Analysis: Dose Response Assay. [Related pubchem assays: 700, 527 ]; assay type: functional, organism-based
HEK293 [21] = assay: Cytotoxicity assay in HEK293 cells. [Related pubchem assays (depositor defined):AID1266, AID1269, AID1270, AID1271, AID1280, AID1281, AID1282, AID1283, AID1287, AID1289, AID1290, AID1291, AID1292, AID1293, AID1294, AID1295, AID1299, AID1302, AID1364, AID1365, AID1366, AID1367, AID1369, AID1370, AID1371, AID1372, AID1373, AID1374, AID1375, AID1384 …; assay type: functional, cell-based; conditions: Homo sapiens
HEK293 [22] = assay: PMA/Ionomycin induced NF-kB luciferase assay in 293- NF-kB-Luc stable cells. [Related pubchem assays: 1299, 1270, 1295, 1375, 1287, 1281, 1293, 1291, 1289, 1280, 465, 1364, 1282, 1372, 1365, 1370, 1367, 1366, 1269, 1373, 1292, 1290, 1302, 1371, 1283, 1271, 1294, 1374, 1368, 1369 ]; assay type: functional, cell-based; conditions: Homo sapiens
[23] = biological target: T1, Luciferin 4-monooxygenase; assay: In vitro luciferase assay using purified luciferase. [Related pubchem assays: 1299, 1270, 1295, 1375, 1287, 1281, 1293, 1291, 1289, 1280, 465, 1364, 1282, 1372, 1365, 1370, 1367, 1366, 1266, 1373, 1292, 1290, 1302, 1371, 1283, 1271, 1294, 1374, 1368, 1369 ]

T1 sequence (P08659 whole entry): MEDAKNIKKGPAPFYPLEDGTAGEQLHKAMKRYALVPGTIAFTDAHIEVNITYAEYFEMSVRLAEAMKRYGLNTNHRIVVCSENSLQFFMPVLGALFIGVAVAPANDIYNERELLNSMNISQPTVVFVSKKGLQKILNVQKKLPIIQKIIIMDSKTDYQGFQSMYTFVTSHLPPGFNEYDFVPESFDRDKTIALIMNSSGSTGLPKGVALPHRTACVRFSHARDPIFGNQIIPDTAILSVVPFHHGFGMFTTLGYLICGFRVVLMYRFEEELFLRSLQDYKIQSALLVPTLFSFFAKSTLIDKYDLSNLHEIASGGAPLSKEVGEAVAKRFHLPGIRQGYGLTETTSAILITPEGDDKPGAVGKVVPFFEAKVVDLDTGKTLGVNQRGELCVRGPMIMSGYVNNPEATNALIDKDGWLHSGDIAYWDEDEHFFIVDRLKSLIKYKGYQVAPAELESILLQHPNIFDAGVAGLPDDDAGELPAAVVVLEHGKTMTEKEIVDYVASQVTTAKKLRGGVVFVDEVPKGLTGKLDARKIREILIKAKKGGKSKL
Chain of Transitional endoplasmic reticulum ATPase (Homo sapiens, UniProt P55072, C522A) (P55072 2-806 C522A limits assumed): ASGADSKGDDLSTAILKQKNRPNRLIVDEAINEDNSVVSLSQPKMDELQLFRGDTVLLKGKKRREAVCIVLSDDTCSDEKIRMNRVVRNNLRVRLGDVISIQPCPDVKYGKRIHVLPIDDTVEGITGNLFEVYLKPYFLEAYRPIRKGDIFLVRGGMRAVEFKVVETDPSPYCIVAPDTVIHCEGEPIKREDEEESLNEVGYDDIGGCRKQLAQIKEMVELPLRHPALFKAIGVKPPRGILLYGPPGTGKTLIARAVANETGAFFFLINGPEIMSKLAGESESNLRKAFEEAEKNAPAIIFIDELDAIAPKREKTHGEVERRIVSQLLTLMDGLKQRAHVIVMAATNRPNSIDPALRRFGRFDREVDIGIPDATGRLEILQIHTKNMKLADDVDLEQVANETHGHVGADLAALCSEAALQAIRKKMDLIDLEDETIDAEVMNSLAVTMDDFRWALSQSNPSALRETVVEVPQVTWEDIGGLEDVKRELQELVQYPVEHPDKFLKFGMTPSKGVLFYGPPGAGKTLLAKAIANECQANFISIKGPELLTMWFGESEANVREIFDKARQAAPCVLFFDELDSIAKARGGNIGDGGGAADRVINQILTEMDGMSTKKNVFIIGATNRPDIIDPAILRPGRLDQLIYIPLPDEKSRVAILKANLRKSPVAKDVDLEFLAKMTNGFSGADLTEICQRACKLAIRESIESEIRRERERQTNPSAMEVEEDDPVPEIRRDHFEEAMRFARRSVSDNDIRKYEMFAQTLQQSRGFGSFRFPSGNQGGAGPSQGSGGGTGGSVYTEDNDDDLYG
Chain of Mucolipin-3 (Q8TDD5 whole entry): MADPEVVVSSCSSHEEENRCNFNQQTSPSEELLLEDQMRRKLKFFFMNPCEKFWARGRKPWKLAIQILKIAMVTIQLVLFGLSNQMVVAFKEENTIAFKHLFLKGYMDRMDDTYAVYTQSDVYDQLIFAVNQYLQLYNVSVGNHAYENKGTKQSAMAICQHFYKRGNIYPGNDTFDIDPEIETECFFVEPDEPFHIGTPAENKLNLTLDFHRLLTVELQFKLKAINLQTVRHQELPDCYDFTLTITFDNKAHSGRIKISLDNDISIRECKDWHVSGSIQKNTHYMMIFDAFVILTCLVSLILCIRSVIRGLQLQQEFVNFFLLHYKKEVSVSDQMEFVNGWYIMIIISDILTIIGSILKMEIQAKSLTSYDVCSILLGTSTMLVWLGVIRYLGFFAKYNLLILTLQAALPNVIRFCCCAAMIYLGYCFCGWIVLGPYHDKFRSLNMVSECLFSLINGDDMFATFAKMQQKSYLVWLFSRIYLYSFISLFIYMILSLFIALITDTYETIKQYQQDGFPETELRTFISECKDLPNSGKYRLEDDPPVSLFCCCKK
Chain of Large T antigen (P03070 whole entry): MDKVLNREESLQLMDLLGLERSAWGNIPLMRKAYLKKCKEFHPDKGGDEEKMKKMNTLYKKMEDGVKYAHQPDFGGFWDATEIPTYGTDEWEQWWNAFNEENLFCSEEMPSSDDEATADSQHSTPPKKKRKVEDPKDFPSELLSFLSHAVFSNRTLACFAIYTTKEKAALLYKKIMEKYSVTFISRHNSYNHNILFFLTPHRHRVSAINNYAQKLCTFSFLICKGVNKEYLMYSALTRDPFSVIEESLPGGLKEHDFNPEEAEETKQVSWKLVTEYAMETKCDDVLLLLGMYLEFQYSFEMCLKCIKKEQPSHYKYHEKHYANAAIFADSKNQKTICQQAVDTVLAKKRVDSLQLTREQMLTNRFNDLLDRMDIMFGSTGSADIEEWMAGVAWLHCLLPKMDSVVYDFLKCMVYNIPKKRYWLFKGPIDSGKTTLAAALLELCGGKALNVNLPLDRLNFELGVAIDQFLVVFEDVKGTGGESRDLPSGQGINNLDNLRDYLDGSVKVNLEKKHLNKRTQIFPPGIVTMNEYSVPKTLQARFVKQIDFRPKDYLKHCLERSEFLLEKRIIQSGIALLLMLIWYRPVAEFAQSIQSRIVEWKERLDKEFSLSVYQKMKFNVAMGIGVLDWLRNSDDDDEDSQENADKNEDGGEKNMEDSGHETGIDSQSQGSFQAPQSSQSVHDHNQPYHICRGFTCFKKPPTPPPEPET
Chain of Mothers against decapentaplegic homolog 3 (P84022 whole entry): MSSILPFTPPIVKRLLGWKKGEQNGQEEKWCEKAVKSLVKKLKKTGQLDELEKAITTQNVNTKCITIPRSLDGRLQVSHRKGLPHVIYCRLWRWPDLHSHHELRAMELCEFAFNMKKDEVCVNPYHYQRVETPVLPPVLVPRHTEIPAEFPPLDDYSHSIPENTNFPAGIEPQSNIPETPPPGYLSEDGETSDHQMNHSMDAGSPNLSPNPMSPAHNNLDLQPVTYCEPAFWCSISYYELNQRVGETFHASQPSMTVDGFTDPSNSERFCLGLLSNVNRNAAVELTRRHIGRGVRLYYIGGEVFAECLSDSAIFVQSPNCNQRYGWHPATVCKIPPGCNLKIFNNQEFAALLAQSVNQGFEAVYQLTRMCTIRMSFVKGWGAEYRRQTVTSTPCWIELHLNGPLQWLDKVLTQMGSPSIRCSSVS
Chain of Lysosomal acid glucosylceramidase (P04062 whole entry): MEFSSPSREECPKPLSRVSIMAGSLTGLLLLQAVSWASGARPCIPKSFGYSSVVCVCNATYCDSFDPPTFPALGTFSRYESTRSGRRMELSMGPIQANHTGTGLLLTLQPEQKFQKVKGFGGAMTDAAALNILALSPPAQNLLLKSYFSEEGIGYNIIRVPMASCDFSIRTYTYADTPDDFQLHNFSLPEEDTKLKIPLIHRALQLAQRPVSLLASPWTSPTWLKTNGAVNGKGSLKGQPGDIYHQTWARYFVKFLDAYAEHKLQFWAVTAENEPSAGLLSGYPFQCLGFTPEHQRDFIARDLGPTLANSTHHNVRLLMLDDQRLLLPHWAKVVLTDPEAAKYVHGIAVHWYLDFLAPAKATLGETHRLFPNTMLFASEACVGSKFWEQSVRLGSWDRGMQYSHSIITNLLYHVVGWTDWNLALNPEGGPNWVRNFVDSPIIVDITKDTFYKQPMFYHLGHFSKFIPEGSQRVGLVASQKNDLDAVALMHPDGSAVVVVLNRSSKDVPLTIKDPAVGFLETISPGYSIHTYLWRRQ
Chain of Procathepsin L (P07711 whole entry, the tested form may be a part): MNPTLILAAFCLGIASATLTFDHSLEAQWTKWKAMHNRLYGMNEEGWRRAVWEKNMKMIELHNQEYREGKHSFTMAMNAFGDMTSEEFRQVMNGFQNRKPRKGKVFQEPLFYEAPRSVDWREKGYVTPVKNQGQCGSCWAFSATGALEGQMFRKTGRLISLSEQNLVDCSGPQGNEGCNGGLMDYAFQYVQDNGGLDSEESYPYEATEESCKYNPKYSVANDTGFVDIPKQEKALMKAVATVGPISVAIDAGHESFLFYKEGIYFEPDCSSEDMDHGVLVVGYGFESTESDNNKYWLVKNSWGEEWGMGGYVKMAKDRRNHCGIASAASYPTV
Chain of FAD-linked sulfhydryl oxidase ALR (P55789 whole entry): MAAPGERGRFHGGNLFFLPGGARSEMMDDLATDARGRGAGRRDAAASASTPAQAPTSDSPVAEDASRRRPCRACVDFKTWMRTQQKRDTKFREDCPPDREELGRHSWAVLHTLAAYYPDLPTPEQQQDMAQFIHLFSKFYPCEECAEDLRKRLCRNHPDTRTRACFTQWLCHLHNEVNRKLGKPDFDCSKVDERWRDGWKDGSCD
Chain of Transitional endoplasmic reticulum ATPase (Homo sapiens, UniProt P55072) (P55072 whole entry): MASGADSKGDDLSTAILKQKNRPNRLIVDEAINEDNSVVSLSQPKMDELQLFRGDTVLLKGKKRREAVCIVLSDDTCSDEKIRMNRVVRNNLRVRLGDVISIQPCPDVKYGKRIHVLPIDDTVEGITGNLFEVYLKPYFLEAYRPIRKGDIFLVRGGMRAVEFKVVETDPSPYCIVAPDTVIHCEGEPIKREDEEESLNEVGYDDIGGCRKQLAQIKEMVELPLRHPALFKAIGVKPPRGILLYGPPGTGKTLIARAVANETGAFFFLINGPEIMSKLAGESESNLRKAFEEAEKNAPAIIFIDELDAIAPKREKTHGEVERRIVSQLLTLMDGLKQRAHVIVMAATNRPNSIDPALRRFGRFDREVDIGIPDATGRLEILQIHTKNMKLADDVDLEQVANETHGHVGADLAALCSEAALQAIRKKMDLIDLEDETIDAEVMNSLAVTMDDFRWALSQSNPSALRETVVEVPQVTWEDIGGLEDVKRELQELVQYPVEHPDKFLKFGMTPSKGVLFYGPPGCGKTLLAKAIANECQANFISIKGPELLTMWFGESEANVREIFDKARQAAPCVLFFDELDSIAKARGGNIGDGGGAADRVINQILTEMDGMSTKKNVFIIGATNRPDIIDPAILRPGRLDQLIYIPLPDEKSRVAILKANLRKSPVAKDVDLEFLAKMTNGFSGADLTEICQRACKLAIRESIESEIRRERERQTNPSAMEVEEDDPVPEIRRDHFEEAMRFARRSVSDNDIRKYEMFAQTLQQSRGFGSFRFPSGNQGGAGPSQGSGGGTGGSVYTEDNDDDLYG

COc1ccc(/C=N/Nc2nnc(-c3ccccc3)c(O)n2)cc1
IC50 [1]: > 50 µM (not active)
IC50 [2]: > 50 µM (not active)

Cc1nn2cc(-c3ccccc3)nc2s1
EC50 [3]: 700 nM (active)
EC50 (HT-1080): > 50 µM (not active)

O=C1OC2(c3ccc(O)c(O)c3Oc3c2ccc(O)c3O)c2c(Cl)c(Cl)c(Cl)c(Cl)c21
IC50 [4]: 12.4 µM (active)

O=C(NCCCn1ccnc1)Nc1ccc(Cl)cc1
EC50 [5]: > 35.4 µM (not active)
EC50 [6]: > 50 µM (not active)
EC50 (HEK293 [7]): > 35.4 µM (not active)
EC50 [8]: > 35.4 µM (not active)

Cc1cc(C)c(C(=O)c2ccc(C(=O)N(C(C)C)C(C)C)cc2)c(C)c1
EC50 (Ion channel NompC): > 29.9 µM (not active)
EC50 (Mucolipin-3): 2.24 µM (active)

Oc1ccc(/C=C/c2cc(O)cc(O)c2)cc1 [RESVERATROL]
IC50 (Procathepsin L): > 59.6 µM (not active)
EC50 [9]: > 300 µM (not active)
EC50 [10]: 6.97 µM (active)
EC50 [11]: 163 µM (active)
EC50 [12]: > 20 µM (not active)
IC50 (Large T antigen): 26.2 µM (active)
AC50 [13]: 4.02 µM (active)
CC50 [14]: 26.3 µM (active)
IC50 (Aspartyl aminopeptidase): 2.24 µM (active)

O=C(c1ccc(F)cc1)n1c2ccccc2c2ccccc21
EC50 (Streptococcus): > 500 µM (not active)

Cc1ccc(Nc2nc(-c3c(C)nc4ccccn34)cs2)cc1
EC50 [15]: 13 nM (active)
EC50 [16]: < 100 nM (active)
EC50 [17]: < 100 nM (active)
EC50 (cells): 27 nM (active)
IC50 [18]: > 80 µM (inactive)
IC50 [19]: 89.5 nM (active)
EC50 [20]: 21 nM (active)

Cc1ccc(C)c(S(=O)(=O)c2nnn3c2[nH]c(=O)c2sccc23)c1
IC50 (Staphylococcus aureus): 5.17 µM (active)

C/C(=N\NC(=O)c1cccc([N+](=O)[O-])c1)c1ccccn1
EC50 (HEK293 [21]): 10.2 µM (inactive)
EC50 (HEK293 [22]): 6.12 µM (not active)
EC50 [23]: > 8 µM (not active)
